Measurements taken from patent US20240165043A1, “COMPOSITIONS FOR THE TREATMENT OF A DISEASE OF THE URINARY TRACT AND TREATMENT OF A DISEASE INVOLVING THE INTRACELLULAR DELIVERY OF THE PARTICLE OR A MEDICAMENT CONTAINED THEREIN” (UCL BUSINESS LTD, priority 2018, published 2024).

How the values were obtained:
[1] = system: HBLAK-derived bladder organoids; test: Cell toxicity assay (LDH release); assay type: cell-based, human; settings: CapFuran 2 mg/ml; equivalent free nitrofurantoin 200 mg/ml as printed; 60 minutes; N=6
Description: A colorimetric […] (LDH) assay kit (Thermo Scientific) was used to measure potential cell damage from CapFuran or nitrofurantoin. The procedure was carried out as directed by the manufacturer. HBLAK-derived bladder organoids were grown for 14 days then exposed to 1000 μl of culture media (control) or 1000 μl of culture media containing CapFuran 1 mg/ml; CapFuran 2 mg/ml; 100 μg/ml unencapsulated nitrofurantoin; 200 μg/ml Nitrofurantoin; 100 μl of 10× lysis buffer (maximum LDH control); or culture medium containing 10% ultra-pure water (to measure spontaneous LDH release). Experiments were carried out in triplicates. All organoids were subsequently incubated for 60 minutes at […] in 5% CO2. After incubation, 50 μl of medium from the apical chamber of each treated organoid was transferred to 3 wells of a flat-bottomed […] (Corning). […] To quantify the amount of LDH released, the 96 well plate was read using a colorimetric sphectrophotometer (Biochrom EZ Read 400) at an absorbance of 492 nm and 650 nm. Microsoft Excel was used to subtract the background reading from the LDH reading before calculating cytotoxicity in % using the following formula: % Cytotoxicity=Treatment associated LDH release−Spontaneous LDH release×100 Maximum LDH activity−Spontaneous LDH release

[2] = system: human urothelial organoid model; test: Cellular uptake of cargo, three-dimensional bladder organoid; assay type: cell-based; settings: two hours of treatment; free FITC at equivalent amount (14 ug/mL)
Description: The three-dimensional bladder organoid model has been described (Horsley et al, 2017, https://doi.org/10.1101/152033). Briefly, organoids were created as follows. In preparation for organotypic culture, previously frozen cells were thawed and expanded on 9 cm culture dishes as above. Once 70-80% confluent, the cells were washed briefly with calcium- and magnesium-free phosphate buffered saline (PBS, Sigma-Aldrich) and incubated at 37° C. in ˜3 ml of pre-warmed Accutase solution for 2-5 min. The dishes were lightly tapped and detached cells re-suspended in 7 ml of warm CnT-Prime. After centrifugation at 200×g for 5 min, the supernatant was removed and the pellet re-suspended in fresh CnT-Prime. This cell suspension was counted whilst allowing the cells to equilibrate for 3 min at room temperature. […]
The 3D culture inserts were incubated for 3-5 days until 100% confluent. Confluency was determined through the fluorescent staining of 1 insert and visualisation under epi-fluorescence microscopy (see section below). […]
(§1) We performed epi-fluorescence microscopy on an Olympus CX-41 upright microscope, and confocal laser scanning microscopy on Leica SP5 and SP2 microscopes. […] For both still and live imaging, images were processed and analysed using Infinity Capture and Analyze V6.2.0, ImageJ 1.50 h 50 and the Leica Application Suite, Advanced Fluorescence 3.1.0 build 8587 Software.

[3] = system: human bladder epithelial cells (HBLAK); test: Cellular uptake of cargo, two-dimensional monolayer; assay type: cell-based; settings: free FITC at 2.5 mg/mL
Excerpt: Commercially available human bladder epithelial cells (HBLAK, CelINTec), which are a spontaneously immortalised, non-transformed derivative of progenitor cells that retain the ability to differentiate, were supplied in frozen aliquots containing ˜5×10^5 cells at passage 2 and ˜0.5×10^5 at passage 25 respectively. The progenitor cells had been isolated from bladder trigone biopsies from male patients undergoing surgery for benign prostatic hyperplasia. HBLAK cells were used up until passage 40-50.
Thawed cells were seeded (˜300 cell clumps/cm^2) into pre-warmed and equilibrated low-calcium, high-bovine pituitary extract, primary epithelial medium (CnT-Prime, Cell N Tec) in 9 cm polystyrene dishes and incubated at 37° C. in a humidified incubator under 5% CO2. Culture medium was replaced after overnight incubation to remove residual dimethyl sulfoxide (DMSO). Antibiotics were not added to culture medium at any point due to adverse effects on cytodifferentiation, metabolism and morphology. […]
as §1

Compound	Cytotoxicity (LDH release), mean [1] [%]	FITC penetration through cell layers [2]	FITC staining of cells by free diffusion [3]
O=C1CN(/N=C/c2ccc([N+](=O)[O-])o2)C(=O)N1 [nitrofurantoin]	6.60	–	–
fluorescein isothiocyanate [free FITC]	–	negligible penetration	faint green staining to all cells
